Source: the NIST ThermoML archive (doi:10.1016/j.fluid.2008.08.007)

Assay: xn = mol fraction of the nth substance listed
Settings: x1 = 0.75; for surface tension liquid-gas: Ring tensiometer; for mass density: 101 kPa, Liquid, westphal balance

[Cl-].[Cl-].[Zn+2] [zinc chloride] + CCCCn1cc[n+](C)c1.[Cl-]
Settings | mass density [kg/m3] | surface tension liquid-gas [mN/m]
318.2 K | 1779.1 | 78.3
323.2 K | 1773.6 | 78
328.2 K | 1766.9 | 77.7
333.2 K | 1758 | 77.2
338.2 K | 1749.2 | 76.8
343.2 K | 1742.1 | 76.4
